From PubChem BioAssay (NCI)
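Growth conditions: 96-well plates. Treatment: test compound, 48 hours, 5 concentrations. Analysis: linear interpolation between bracketing concentrations; unreached endpoints set to highest concentration. TGI denotes the concentration required for complete inhibition of growth.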

Key:
Assay in all cases: DTP human tumour cell line panel, 48 h
EKVX NSCLC = tested on: EKVX NSCLC
KM20L2 colon = tested on: KM20L2 colon
SNB-19 CNS = tested on: SNB-19 CNS
SW-620 colon = tested on: SW-620 colon
SR leukemia = tested on: SR leukemia
M19-MEL melanoma = tested on: M19-MEL melanoma
DMS 114 small cell lung = tested on: DMS 114 small cell lung
SK-MEL-5 melanoma = tested on: SK-MEL-5 melanoma
UACC-62 melanoma = tested on: UACC-62 melanoma
SF-295 CNS = tested on: SF-295 CNS
OVCAR-4 ovarian = tested on: OVCAR-4 ovarian
HOP-62 NSCLC = tested on: HOP-62 NSCLC
HCT-15 colon = tested on: HCT-15 colon
SK-OV-3 ovarian = tested on: SK-OV-3 ovarian
IGROV1 ovarian = tested on: IGROV1 ovarian
OVCAR-8 ovarian = tested on: OVCAR-8 ovarian
786-0 renal = tested on: 786-0 renal
RXF 393 renal = tested on: RXF 393 renal
HL-60(TB) leukemia = tested on: HL-60(TB) leukemia
UACC-257 melanoma = tested on: UACC-257 melanoma
HT29 colon = tested on: HT29 colon
HCC-2998 colon = tested on: HCC-2998 colon
HOP-92 NSCLC = tested on: HOP-92 NSCLC
NCI-H23 lung = tested on: NCI-H23 lung
NCI-H226 lung = tested on: NCI-H226 lung
SNB-75 CNS = tested on: SNB-75 CNS
UO-31 renal = tested on: UO-31 renal
SF-539 CNS = tested on: SF-539 CNS
ACHN renal = tested on: ACHN renal
U251 CNS = tested on: U251 CNS
NCI-H522 lung = tested on: NCI-H522 lung
HCT-116 colon = tested on: HCT-116 colon
A498 renal = tested on: A498 renal
SF-268 CNS = tested on: SF-268 CNS
DMS 273 small cell lung = tested on: DMS 273 small cell lung
K-562 leukemia = tested on: K-562 leukemia
M14 melanoma = tested on: M14 melanoma
A549 NSCLC = tested on: A549 NSCLC
DLD-1 colon = tested on: DLD-1 colon
LXFL 529 NSCLC = tested on: LXFL 529 NSCLC
SN12C renal = tested on: SN12C renal
XF 498 CNS = tested on: XF 498 CNS
SNB-78 CNS = tested on: SNB-78 CNS
MALME-3M melanoma = tested on: MALME-3M melanoma
HOP-18 NSCLC = tested on: HOP-18 NSCLC
SK-MEL-28 melanoma = tested on: SK-MEL-28 melanoma
COLO 205 colon = tested on: COLO 205 colon

Measured: TGI

Nc1nc2c3nc(Nc4ccccc4)sc3nc(=S)n2c2sc(Nc3ccccc3)nc12
29.4 µM: LXFL 529 NSCLC
52.3 µM: HOP-92 NSCLC
56.5 µM: SF-268 CNS
4.25 µM: XF 498 CNS
> 100 µM: all other assays above
